Experimental data: ChEMBL document CHEMBL1157297, “Daphmanidins E and F, alkaloids from Daphniphyllum teijsmannii” (2006)

Assays:
Aorta [1] = assay: Vasorelaxant activity against norepinephrine-induced contraction in Wistar rat thoracic aorta at 10 uM; type: functional; set-up: scale not given: the % may be the effect or the level left
Aorta [2] = assay: Vasorelaxant activity against norepinephrine-induced contraction in Wistar rat thoracic aorta at 100 uM; type: functional; set-up: scale not given: the % may be the effect or the level left

SMILES	Activity (Aorta [1]) [%]	Activity (Aorta [2]) [%]
COC(=O)[C@@H]1C[C@]23C4=NC[C@@H](C)[C@]45CC[C@@]2(COC(C)=O)[C@H](CCC2=C3[C@@H]1CC2)[C@H]5O [DAPHMANIDIN A]	37.5	
COC(=O)C1=C2CCC3=C2[C@@]2(C1)C1=NC[C@@H](C)[C@]14CC[C@@]2(COC(C)=O)[C@H](CC3)[C@H]4O [DAPHMANIDIN E]		34.9
COC(=O)C1=C2CC[C@]34CC[C@@H]5[C@@H](O)[C@@]67CC[C@]5(COC(C)=O)[C@](C1)(C6=NC[C@H]7C)[C@]23O4 [DAPHMANIDIN F]	45.8	
